Measurements: US20220133894A1, “BISPHOSPHONATE-LINKED COMPOUNDS” (OREGON HEALTH & SCIENCE UNIVERSITY, priority 2019, published 2022)

What was measured:
[1] = test system: PC3-M cells; test: PCa subcutaneous implantation, tumor growth; type: in vivo; settings: oral 80 mg KBU2046/kg, weekly intraperitoneal docetaxel 20 mg/kg, KBU2046 added to control or docetaxel treated mice
Method: FIG. 1A depicts the effect of chemotherapy on the growth of androgen independent PC3-M PCa cells in vitro. Data are the mean±SEM (N=3 replicates) of cell viability in a 3 day growth assay in the presence of 10 μM KBU2046 or vehicle (control) treated with docetaxel or cabazitaxel. FIG. 1B depicts the effect of chemotherapy on the growth of androgen independent PCa cells in vivo. Mice received subcutaneous implants of PC3-M cells, were monitored until tumors were detectable (250 mm^3), and then treated daily with oral 80 mg KBU2046/kg (46) or vehicle (CO) and with weekly intraperitoneal docetaxel (doc) at 0 or 20 mg/kg, beginning on day 1, and tumor size measured. Data are mean±SEM, with N=20 mice per cohort.
PCa subcutaneous implantation: 2.5×10^5 PC3-M cells in sterile PBS were implanted into the right flank of 6-7 week old male athymic nude mice (Charles River) and tumor growth measurements were performed twice a week as previously described by us (Gordon et al., Chemotherapy-induced monoamine oxidase expression in prostate carcinoma functions as a cytoprotective resistance enzyme and associates with clinical outcomes. PLoS One 9, e104271 (2014)). […] Tumor measurements were obtained in a blinded fashion, and tumor volumes were calculated with the following formula: length×(width)^2×0.5.

[2] = test system: PC3-M-luc cells; test: PCa orthotopic implantation, primary tumor growth and lung metastasis; type: in vivo, mice
Method: To assess the efficacy of a spectrum of docetaxel concentrations, mice received orthotopic implants of PC3-M-luc cells, were treated with 0, 10 or 20 mg/kg docetaxel, and tumor growth monitored with weekly IVIS imaging. […] Subsequently, mice with orthotopic implants of PC3-M-luc cells were treated with docetaxel, KBU2046, docetaxel+KBU2046 or vehicle, as denoted, and effects on primary tumor growth and lung metastasis quantified (FIGS. 2A, 2B, and 2C).
Cohorts of N=10 mice bearing orthotopic implants of PC3-M-luc cells were treated daily with 150 mg/kg KUB2046 (46), intraperitoneal docetaxel 7.5 mg/kg weekly (doc), the combination (doc+46), or with oral and intraperitoneal vehicle (CO). KBU2046 treatment began 3 days before implantation and docetaxel began 1 week after. (A) Lung metastasis measured by qPCR for human Alu sequences, expressed as percent control (B) Weekly IVIS imaging of tumor. (C) Tumor weight. * denotes P<0.05 for differences between cohorts denoted by bars. All data are mean±SEM.
PCa orthotopic implantation: Orthotopic implantation of 2.5×10^5 PC3M-luc into 7-8 week old male athymic mice was performed as previously described by us (5, 52 Xu et al., above; and Pavese et al., J Vis Exp, e50873 (2013)). Daily oral gavage treatment with 150 mg/kg KBU2046 or was initiated 3 days prior to implantation and continued throughout the duration of the study. Weekly IP injections with 7.5 mg/kg docetaxel or control were administered beginning one week post implantation. Primary tumor out growth was monitored via weekly IVIS imaging. At the completion of the study the primary tumor was resected and weighed and lungs were resected and snap frozen. To determine the human PCa metastatic burden in each mouse lung, the snap frozen tissue was pulverized, DNA isolated and Alu-sequencing performed as previously described (19). […] (SEQ ID NO: 3). The 144RH probe was labeled with a 5′ fluorescent reporter (6-FAM) and a 3′ fluorescent quencher (Black Hole Quencher). The relative content of human DNA was calculated with using the comparative CT method, CT (sample)-CT(negative control). All samples were run in triplicate and were repeated.

[3] = test system: VCaP cells; test: SRB growth inhibition assay, VCaP; type: cell-based, human; settings: 10 μM enzalutamide, 10 μM KBU2046 added to control or enzalutamide treated cells, 72 hours
Method: (§1) LNCaP or VCaP cells cultured in hormone free media were treated with R1881 (R), KBU2046 (46) and/or enzalutamide (E). (FIGS. 3A and 3B) Effects on AR-responsive gene expression. PSA expression was measured by qRT/PCR, normalized to GAPDH and expressed as a percent of control cells (N=3 replicates); * denotes P<0.05 for groups separated by bar. (FIGS. 3C and 3D) Effects on cell growth. Three day growth assays were performed. Data are the number of viable cells, expressed as % of control (N=3 replicates); * P<0.05 compared to control. (E) Effects on AR activation. Western blots of nuclear (N) and cytoplasmic (C) preparations of cell extracts were probed for AR, laminin 1 or α-tubulin. (FIGS. 3F and 3G) Effects on tumor outgrowth after androgen deprivation therapy. LNCaP/AR-luc cells were implanted subcutaneously (N=6 mice/cohort) or orthotopic (N=15 mice/cohort were implanted; N=5 yielded tumors) into castrate mice, treatment with KBU2046 began as noted, and weekly IVIS imaging performed. Data are tumor size, expressed as luminescence intensity. All data are expressed as mean±SEM.
(§2) Enzalutamide mediated growth inhibition was assessed using Sulforhodamine B (SRB) growth inhibition assays, were performed as previously described (49). In brief, LNCaP and VCaP cells were pre-incubated in charcoal-striped medium for 48 hours and then seeded (1.9×10^4) in 96-well plates. […]

[4] = test system: prostate specific antigen (PSA); test: PSA expression by qRT/PCR in LNCaP cells; type: cell-based, human; settings: LNCaP cells in androgen depleted media
Method: (§3) Cells were cultured in media depleted of androgen and after a washout of 72 hrs were treated with the synthetic androgen R1881, KBU2046, enzalutamide and/or vehicle (control), and resultant effects upon induction of the androgen-responsive gene, prostate specific antigen (PSA) were measured (FIG. 3A).
as §1
(§4) RNA was isolated and qRT/PCR performed as previously described by us (Ding et al., J Biomol Tech 18, 321-330 (2007)). Resultant data were analyzed using the 2^−ΔΔt method (Livak et al., Methods 25, 402-408 (2001)), normalized to GAPDH, for the following primer/probe sets (ABI) PSA (Hs02576345_m1) and GAPDH (Hs99999905_m1). Assays were performed in triplicate, and were repeated.

[5] = test system: prostate specific antigen (PSA); test: PSA expression by qRT/PCR in VCaP cells; type: cell-based, human; settings: VCaP cells in androgen depleted media
Method: as §3, §1, §4

[6] = test system: LNCaP cells; test: SRB growth inhibition assay, LNCaP; type: cell-based, human; settings: 10 μM enzalutamide, 10 μM KBU2046 added to control or enzalutamide treated cells, 72 hours
Method: as §1, §2

SMILES	tumor growth [1]	prostate tumor growth kinetics by weekly IVIS imaging ([2]; cohorts receiving docetaxel 7.5 mg/kg weekly vs not)	tumor growth by weekly IVIS imaging ([2]; orthotopic PC3-M-luc, 0, 10 or 20 mg/kg docetaxel, dose-dependent)	decrease of tumor weight compared to control ([2]; orthotopic PC3-M-luc, 150 mg/kg KBU2046 daily, docetaxel 7.5 mg/kg weekly) [%]	decrease of lung metastasis compared to control (human Alu qPCR) ([2]; orthotopic PC3-M-luc, 150 mg/kg KBU2046 daily, docetaxel 7.5 mg/kg weekly intraperitoneal) [%]	cell growth [3]	PSA expression [4]	PSA expression [5]	cell growth [6]
CC(=O)O[C@@]12CO[C@@H]1C[C@H](O)[C@@]1(C)C(=O)[C@H](O)C3=C(C)[C@@H](OC(=O)[C@H](O)[C@@H](NC(=O)OC(C)(C)C)c4ccccc4)C[C@@](O)([C@@H](OC(=O)c4ccccc4)[C@H]21)C3(C)C [docetaxel]	significantly inhibited	slower growth	significantly inhibited	49	23	–	–	–	–
CNC(=O)c1ccc(N2C(=S)N(c3ccc(C#N)c(C(F)(F)F)c3)C(=O)C2(C)C)cc1F [enzalutamide]	–	–	–	–	–	significantly inhibited	decreased	decreased	significantly inhibited
